Reference: US7557109B2, “Treatment for attention-deficit hyperactivity disorder” (priority 2001, dated 2009)

Legend:
wild-type mice = assay: DRL-36s schedule after FR5 conditioning, wild-type mice; format: in vivo
Protocol: (§1) Experiments were conducted in eight identical mouse operant chambers (16×14×13 cm) with stainless steel grid floors (ENV-307M; Med Associates Inc., Georgia, Vt., USA) housed in sound-insulating and ventilated cubicles. Each chamber was equipped with two ultra-sensitive retractable levers, one on each side of a food cup containing photocells to register nose poke behavior and in which a pellet dispenser delivered 20 mg food pellets (Formula A/I, P.J. Noyes Company Inc., Lancaster, N.H., USA). A red house light (50 lux) was located in the center of the wall opposite to the food cup and levers. Stimulus lights were located above each lever and above the food cup. Experimental sessions were controlled and data were recorded by a computer.
(§2) Mice trained on DRL procedure first received operant conditioning. DRL-36s task was adapted from procedures used in rats (O'Donnell and Seiden, supra). Briefly, mice first learned to respond for food under a DRL 6 sec schedule, which means that mice had to wait at least 6 seconds between successive lever presses in order to obtain a food reward. Subsequently the schedule requirement was increased every session in steps of 6 sec to 36 sec (DRL 36 sec). Each session started with the illumination of the house light, the stimulus light above the food cup and the presentation of the left lever for the duration of the session. […] If the mouse presses too soon, no reinforcement is given, the clock is reset to zero, and a new 36-sec waiting period starts. In this way, the DRL-36s schedule task primarily measures waiting strategies which reflect hyperactivity-impulsivity behaviors associated with ADHD. Animals were trained until performances on the DRL 36 sec schedule had stabilized (approximately 25 sessions). All training sessions lasted 60 min and were conducted 5 days per week from Monday-Friday. The total number of lever presses (responses), the total number of reinforcements, and the inter-response times (IRT) are recorded.
Data were analyzed as described elsewhere (Richards et al., J. Exp. Anal. Behav. 60:361-385, 1993; Sabol et al., Psychopharmacology 121:57-65, 1995). The inter-response time (IRT) analysis included three measures for the characterization of DRL 36 sec IRT distributions: peak area, peak location and burst ratio. Only peak area (PkA) and peak location (PkL) are presented. The PkA measure is the area of the obtained IRT distribution of a mouse above the corresponding negative exponential, a computation based on mean of obtained IRT durations excluding the burst component of IRT<3 sec (see Richards et al., supra, for details). […] Thus, decreases in PkA indicate that the mouse's IRT distribution becomes more similar to random performance indicating loss of schedule control. PkL is calculated as the median of the area of the obtained IRT distribution above the corresponding negative exponential.
Mice were conditioned and challenged on a DRL-36s schedule according to the methods of Example 7, with the following modifications. Because 1BKO mice had difficulty learning the DRL-36s schedule following conditioning on an FR1, wild-type and 1BKO mice were conditioned on a fixed rate 5 (FR5) schedule. In FR5, instead of pressing the lever once for a reward, animals have to press 5 times. The rationale for changing the operant conditioning was that by increasing the number of responses necessary for reinforcement, the wild-type mice should have greater difficulty and the 1BKO (which have higher response rates anyway) should have less difficulty getting reinforcements.

[1] = broad range of doses; cited from earlier work
C3H mice = assay: Peak procedure (30 second reinforcement interval), C3H mice; format: in vivo
Protocol: The peak procedure is a behavioral model designed to assess an animal's ability to learn an appropriate time period in which to perform a task and a time period in which the animal will be rewarded if the task is performed. The model provides information concerning excitatory and inhibitory components of behavior, as subjects must respond to perform a task when appropriate and stop responding in an “empty trial” when time for reward has elapsed and the reward has not been delivered. The task is sensitive to conditions where there is a failure in inhibitory mechanisms, such as seems to be the case for ADHD (Pliszka et al., Biol. Psychiatry, 48:238-46, 2000).
In the peak procedure, mice are trained to work for food that is delivered at the same time in each trial, but withdrawn in some unreinforced trials. Typically, the response rate increases up to a maximum around the reinforcement time, and then decreases to a low toward the end of the trial. The shape of the response rate indicates whether the animal is sensitive to the time of reinforcement. To be able to perform well in this model, the animals need to be able to learn several tasks. First, the animal must make an association between a response (lever pressing, nose poking or key pecking) and the delivery of reward. Second, the animal must be able to perceive and remember time. Third, the animal must act on its remembered time by starting and then stopping or inhibiting the response. Fourth, the animal must be able to compare the elapsed time in the trials with its remembered time to reinforcement. […] Accuracy is measured by looking at the shape of the response function; therefore, if the response function is sharper and centered on the reinforcement time it supports a conclusion that attentional processes have been heightened.
Mice were food deprived to 85-90% of their free-feeding body weight by supplementing food earned during experimental sessions with a measured amount after the session had ended. […]

[2] = in vivo; cited from earlier work
[3] = system: 5-HT1B knockout (1BKO) mice; assay: DRL-36s schedule after FR5 conditioning, 5-HT1B knockout mice; format: in vivo
Protocol: as §1, §2
Data were analyzed as described elsewhere (Richards et al., J. Exp. Anal. Behav. 60:361-385, 1993; Sabol et al., Psychopharmacology 121:57-65, 1995). The inter-response time (IRT) analysis included three measures for the characterization of DRL 36 sec IRT distributions: peak area, peak location and burst ratio. Only peak area (PkA) and peak location (PkL) are presented. The PkA measure is the area of the obtained IRT distribution of a mouse above the corresponding negative exponential, a computation based on mean of obtained IRT durations excluding the burst component of IRT<3 sec (see Richards et al., supra, for details). […] PkL is calculated as the median of the area of the obtained IRT distribution above the corresponding negative exponential. […]

[4] = 0.5 mg/kg and 1 mg/kg i.p. (FIG. 13A)

## c1cc2c(c(N3CCNCC3)c1)OCCO2 [eltoprazine, 1-(2,3-dihydro-1,4-benzodioxanyl-5-yl) piperazine]
wild-type mice; [4]
  number of reinforcements: significantly decreased reinforcements
wild-type mice; 0.5 mg/kg i.p. (FIG. 13B)
  response rate: significantly decreased response rates
[1]
  overall safety and tolerance: good
C3H mice; 0.1 and 0.9 mg/kg (FIG. 3)
  relative response rate curve in peak trials: cognitive enhancement was observed
C3H mice; 1, 2 and 4 mg/kg (FIGS. 2A-C)
  relative response rate curve in peak trials: flatter than the saline curve
[2]
  absolute bioavailability: about 95%
  cumulative renal excretion of unchanged eltoprazine: about 40%
  dose dependence of plasma concentrations: increase in a linear dose-dependent manner
  plasma elimination half-life: 5 to 12 h
  terminal half-life: 7 to 9 h
  time to maximum plasma concentration after administration: 1 to 4 h
[3]; [4]
  number of reinforcements: significantly decreased reinforcements
[3]; 0.5 mg/kg i.p. (FIG. 13B)
  response rate: significantly decreased response rates
